Experimental data taken from ChEMBL document CHEMBL1201862, “PubChem BioAssay data set” (2004).
Where “and” joins values, the source holds several entries; their conditions need not be identical. Equal values may be shown once.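 Method: 48-hour compound exposure of cells in 96-well plates, five concentrations, linear interpolation of endpoints. Abbreviation: GI50, concentration required for 50% inhibition of growth.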 Calls of active or inactive are those of the source. Rule as the data show it: active = GI50 up to about 1.1 µM and inactive = higher.

Experiments:
Test in all cases: growth of human tumour cells (NCI), 48 h
A498 = test system: A498
UACC-62 = test system: UACC-62
TK-10 = test system: TK-10
EKVX = test system: EKVX
HCC 2998 = test system: HCC 2998
RXF 393 = test system: RXF 393
M14 = test system: M14
HCT-116 = test system: HCT-116
SK-OV-3 = test system: SK-OV-3
HOP-62 = test system: HOP-62
NCI-H23 = test system: NCI-H23
HT-29 = test system: HT-29
CCRF-CEM = test system: CCRF-CEM
COLO 205 = test system: COLO 205
SN12C = test system: SN12C
NCI-H226 = test system: NCI-H226
HCT-15 = test system: HCT-15
LOX IMVI = test system: LOX IMVI
U-251 = test system: U-251

Structure (SMILES) | GI50 (A498) | GI50 (UACC-62) | GI50 (TK-10) | GI50 (EKVX) | GI50 (HCC 2998) | GI50 (RXF 393) | GI50 (M14) | GI50 (HCT-116) | GI50 (SK-OV-3) | GI50 (HOP-62) | GI50 (NCI-H23) | GI50 (HT-29) | GI50 (CCRF-CEM) | GI50 (COLO 205) | GI50 (SN12C) | GI50 (NCI-H226) | GI50 (HCT-15) | GI50 (LOX IMVI) | GI50 (U-251)
CC1=C(C(=O)Nc2ccccc2C)C(/C=C/c2ccccc2)C(C(=O)Nc2ccccc2C)=C(C)N1 | 37.8 µM (inactive) | > 100 µM (inactive) | > 100 µM (inactive) | > 100 µM (inactive) | > 100 µM (inactive) | 51.1 µM (inactive) | > 100 µM (inactive) | > 100 µM (inactive) | > 100 µM (inactive) | > 100 µM (inactive) | > 100 µM (inactive) | > 100 µM (inactive) | 82.6 µM (inactive) | > 100 µM (inactive) | > 100 µM (inactive) | > 100 µM (inactive) | > 100 µM | 74.8 µM (inactive) | 85.1 µM (inactive)
O=C(Nn1cnn2c(=O)c3ccccc3nc2c1=O)c1ccccc1 | > 100 µM (inactive) | > 100 µM (inactive) | > 100 µM (inactive) | > 100 µM (inactive) | > 100 µM (inactive) |  | > 100 µM (inactive) | > 100 µM (inactive) | > 100 µM (inactive) | > 100 µM (inactive) | > 100 µM (inactive) | > 100 µM (inactive) | > 100 µM (inactive) | > 100 µM (inactive) | > 100 µM (inactive) | > 100 µM (inactive) | > 100 µM | > 100 µM (inactive) | > 100 µM (inactive)
O=C(/C=C\c1ccc(Cl)c(Cl)c1)c1ccc(Cl)cc1Cl | > 10 µM (inactive) | 18.5 µM (inactive) | > 10 µM (inactive) | 23.4 µM (inactive) | 16.7 µM (inactive) | 16.1 µM (inactive) | 21.9 µM (inactive) | 9.14 µM (inactive) | 19.9 µM (inactive) | > 10 µM (inactive) | 0.65 µM (active) | 16.8 µM (inactive) | 4.1 µM (inactive) | > 10 µM (inactive) | 24.9 µM (inactive) | 9.51 µM (inactive) | 4.15 µM | 5.74 µM (inactive) | 11.9 µM (inactive)
O=C(O)/C(=C/c1ccccc1[N+](=O)[O-])c1cccs1 | > 100 µM (inactive) | > 100 µM (inactive) | > 100 µM (inactive) | > 100 µM (inactive) | > 100 µM (inactive) |  | > 100 µM (inactive) | > 100 µM (inactive) | > 100 µM (inactive) | > 100 µM (inactive) | > 100 µM (inactive) | > 100 µM (inactive) |  | > 100 µM (inactive) | > 100 µM (inactive) | > 100 µM (inactive) | > 100 µM | > 100 µM (inactive) | > 100 µM (inactive)
CCOC(=O)C(=O)Nc1ccccc1C(F)(F)F | > 100 µM (inactive) | > 100 µM (inactive) | > 100 µM (inactive) | > 100 µM (inactive) | > 100 µM (inactive) | > 100 µM (inactive) | > 100 µM (inactive) | > 100 µM (inactive) | > 100 µM (inactive) | > 100 µM (inactive) | > 100 µM (inactive) | > 100 µM (inactive) |  | > 100 µM (inactive) | > 100 µM (inactive) | > 100 µM (inactive) | > 100 µM | > 100 µM (inactive) | > 100 µM (inactive)
O=C(O)[C@@H](NS(=O)(=O)c1ccc([N+](=O)[O-])cc1)c1ccccc1 | > 100 µM (inactive) | > 100 µM (inactive) | > 100 µM (inactive) | > 100 µM (inactive) | > 100 µM (inactive) | > 100 µM (inactive) | > 100 µM (inactive) |  | > 100 µM (inactive) |  | > 100 µM (inactive) | > 100 µM (inactive) | > 100 µM (inactive) | > 100 µM (inactive) | > 100 µM (inactive) | > 100 µM (inactive) | > 100 µM | > 100 µM (inactive) | > 100 µM (inactive)
CN1CCN2c3ccccc3CC(C#N)(C#N)C2C1 (configuration not stated) | > 100 µM (inactive) | > 100 µM (inactive) | > 100 µM (inactive) | > 100 µM (inactive) | > 100 µM (inactive) | > 100 µM (inactive) | > 100 µM (inactive) | > 100 µM (inactive) | > 100 µM (inactive) |  | > 100 µM (inactive) | > 100 µM (inactive) | > 100 µM (inactive) | > 100 µM (inactive) | > 100 µM (inactive) | > 100 µM (inactive) | > 100 µM | > 100 µM (inactive) | > 100 µM (inactive)
CCOC(=O)C1S/C(=N\c2ccc(OC)c(OC)c2)N=C1C (configuration not stated) | 52.7 µM (inactive) | 26.3 µM (inactive) | 75.9 µM (inactive) | 94.8 µM (inactive) | 51.9 µM (inactive) | 29.9 µM (inactive) | 46.7 µM (inactive) | 32.7 µM (inactive) | 62.7 µM (inactive) | 92 µM (inactive) | 27.7 µM (inactive) | 18.8 µM (inactive) | 22.1 µM (inactive) | 69.3 µM (inactive) | 44.1 µM (inactive) | 64.1 µM (inactive) | 28.6 µM | 32.5 µM (inactive) | 36.2 µM (inactive)
Nc1nc(CCC(=O)Nc2cccc(C(F)(F)F)c2)cc(-c2cccc3ccccc23)n1 | > 100 µM (inactive) | > 100 µM (inactive) | > 100 µM (inactive) | > 100 µM (inactive) | > 100 µM (inactive) | > 100 µM (inactive) | > 100 µM (inactive) | > 100 µM (inactive) | > 100 µM (inactive) | > 100 µM (inactive) | > 100 µM (inactive) | > 100 µM (inactive) | > 100 µM (inactive) | > 100 µM (inactive) | > 100 µM (inactive) | > 100 µM (inactive) | > 100 µM | > 100 µM (inactive) | > 100 µM (inactive)
COC(=O)C1=COC(C)C2CN3CCc4c([nH]c5cc(OC)c(OC)cc45)C3CC12 (configuration not stated) | > 100 µM (inactive) and 87.7 µM (inactive) | 99.8 µM (inactive) and 88.7 µM (inactive) | > 100 µM (inactive) and 87.1 µM (inactive) | 54.6 µM (inactive) and 72.8 µM (inactive) | 58.2 µM (inactive) and 36.1 µM (inactive) | 15.3 µM (inactive) | > 100 µM (inactive) and 65.9 µM (inactive) |  | > 100 µM (inactive) | 89.7 µM (inactive) | 70.5 µM (inactive) and 37.6 µM (inactive) | 34.2 µM (inactive) and 34.7 µM (inactive) |  | 34.9 µM (inactive) and 29.9 µM (inactive) | > 100 µM (inactive) and 68.1 µM (inactive) | > 100 µM (inactive) and 61.5 µM (inactive) | 43.8 µM and 25.1 µM | > 100 µM (inactive) and 55.5 µM (inactive) | 
COc1c(C)c2c(c(C)c1Cl)Oc1c(C=O)c(O)c(Cl)c(C)c1C(=O)O2 | 24.2 µM (inactive) | 21.6 µM (inactive) | 31.8 µM (inactive) | 17.9 µM (inactive) | 28.1 µM (inactive) |  | 20.9 µM (inactive) | 23 µM (inactive) | 33.2 µM (inactive) | 24.3 µM (inactive) | 21.1 µM (inactive) | 36.9 µM (inactive) | 20.3 µM (inactive) | 22.8 µM (inactive) | 33.3 µM (inactive) | 28.7 µM (inactive) |  | 25.9 µM (inactive) | 20.3 µM (inactive)
